# From patent publication EP0923292B1, “IMPROVED METHOD FOR SYSTEMIC ADMINISTRATION OF 2,4-DIENOIC ACID-TYPE INSECTICIDES TO TERRESTRIAL MAMMALS” (priority 1996, dated 1998)
# Where two headings read alike, the source gives them in different places.
# Assays:
# [1] = system: adult cat fleas C. felis; experiment: Flea ovicidal activity in vitro: artificial feeding system with blood drawn from treated dogs (Example 3); details: fed to fleas
# From the text: (§1) For the in vitro tests, an artificial feeding system with cages for adult cat fleas C. felis was used as described by Wade, S.E., et al., J. Med. Ent. 25(3): 186-190 (May 1988). Inside each cage were placed 100 one-week-old, unfed adult C. fells. Each cage included a container for treated blood separated from the fleas by a PARAFILM® membrane, and a compartment containing thin strips of paper to support loosely arranged clean dog hair and to provide a foothold for the fleas as they fed on the blood through the membrane.
# Fifteen healthy male beagle dogs, one year of age, with weights ranging from 10.29 kg to 13.87 kg, were divided into three groups of five dogs each. One group was fed an initial bolus of 50 mg/kg of (S)-methoprene, followed by daily feeding a standard maintenance diet containing 0.02% (S)-methoprene. The second group was fed an initial bolus of 25 mg/kg of (S)-methoprene, followed by daily feeding a standard maintenance diet containing 0.01% (S)-methoprene. The third group received the same diet but with no (S)-methoprene, thereby serving as a control. The daily feeding of 0.02% (S)-methoprene in the first group amounted to approximately 3.6 mg/kg, while the daily feeding of 0.01% (S)-methoprene in the second group amounted to approximately 1.8 mg/kg. The (S)-methoprene was administered in a gelatin capsule, the control involved administration of a gelatin capsule containing vegetable oil instead of (S)-methoprene, and the standard diet was a Science Diet Canine Maintenance. The daily feeding of the (S)-methoprene continued for six weeks following the initial bolus.
# Seven days after the initial bolus and weekly thereafter for five more weeks except week 4, 50 mL of blood was collected from each dog into a syringe preloaded with 3 mL of a 20% (by weight) aqueous sodium citrate solution. The five 50-mL samples from each treatment group were pooled at each bleeding. Aliquots of 10 mL each from each pool were placed in separate feeding chambers of the artificial flea feeding cages.
# Flea eggs were collected from each cage at appropriate intervals. One hundred (100) healthy appearing […] were counted under a dissecting microscope from each cage, divided into two subsamples, and placed in 60 mm x 15 mm plastic petri dishes. The samples were incubated at 78°F and 85% relative humidity for three days, then scored for larval hatch by visual observation through the dissecting microscope. The data from all replicates in each treatment group were combined to yield the mean percent egg hatch, and the percent inhibition of egg hatch was calculated relative to the control.
# [2] = system: adult cat fleas; experiment: Flea ovicidal activity in vitro: artificial feeding system with treated beef blood (Examples 4 and 6); parameters: species or system C. felis; details: Ctenocephalides felis; for inhibition at 0.05 ppm: 0.05 ppm in beef blood; for inhibition at 0.075 ppm: 0.075 ppm in beef blood; for inhibition at 0.1 ppm: 0.1 ppm in beef blood; for inhibition at 0.25 ppm: 0.25 ppm in beef blood; for inhibition at 0.5 ppm: 0.5 ppm in beef blood
# From the text: as §1
# The artificial feeding system and cages for adult cat fleas described in Example 3 were used. Beef blood was used for the feeding system, and was prepared by adding 35 mL of a 20% sodium citrate solution per liter of blood to prevent clotting. A stock solution of lufenuron was prepared by adding 50.1 mg of technical lufenuron to 4.951 g of dimethyl sulfoxide (DMSO) to yield a 1.0% solution. A 1,000 ppm solution was then prepared by diluting 1.0 mL of the 1.0% solution in 9.0 mL of DMSO, and a 100 ppm solution was prepared by diluting 1.0 mL of the 1,000 ppm solution in 9.0 mL of DMSO. Dimethyl sulfoxide itself was used as a control. To treat the blood, the various solutions (0.05 mL) were added to the citrated beef blood (100.0 mL) to yield beef blood solutions containing 5.0 ppm, 0.5 ppm, 0.05 ppm, and 0.00 (zero) ppm lufenuron. Each solution was mixed thoroughly, and 10 mL at each concentration were placed in each of five feeders in the artificial feeding system to serve as replicates. Each day fresh blood solutions identical to the originals were placed in the feeders.
# Flea eggs were collected from each replicate on days 3, 5 and 7. One hundred (100) healthy appearing […] were counted under a dissecting microscope from each replicate, divided into two subsamples per replicate, and placed in 60 mm x 15 mm plastic petri dishes. The samples were incubated at 78°F and 85% relative humidity for three days, then scored for larval hatch using by visual observation through the dissecting microscope. The data from all replicates at each concentration were combined to yield the mean percent egg hatch, and the percent inhibition of egg hatch was calculated relative to the control.
# Retuming to (S)-methoprene, this example presents in vitro flea ovicidal activity using beef blood, for comparison with Example 4. Procedures using beef blood were the same as those indicated in the previous examples.
# [3] = (S)-Methoprene concentration in rat blood upon in vivo administration (radioassay/TLC); details: average of three animals
# [4] = average over days, read-out: Percent Inhibition of Flea Egg Hatching, averages
# [5] = 72 h, day 3, read-out: Percent Inhibition of Flea Egg Hatching
# [6] = 120 h, day 5, read-out: Percent Inhibition of Flea Egg Hatching
# [7] = 144 h, day 6, read-out: Percent Inhibition of Flea Egg Hatching
# [8] = 240 h, day 10, read-out: Percent Inhibition of Flea Egg Hatching
smiles,measurement,setting,value
"COC(C)(C)CCC[C@H](C)C/C=C/C(C)=C/C(=O)OC(C)C [(S)-Methoprene, 1-isopropyl (E,E)-11-methoxy-3,7,11-trimethyl dodecadi-2,4-enoate]",Percent Inhibition of Flea Egg Hatching,"[1]; pooled blood of dogs given initial bolus 25 mg/kg then daily diet 0.01% (S)-methoprene, week 1",6%
same,Percent Inhibition of Flea Egg Hatching,"[1]; pooled blood of dogs given initial bolus 25 mg/kg then daily diet 0.01% (S)-methoprene, week 3",38%
same,Percent Inhibition of Flea Egg Hatching,"[1]; pooled blood of dogs given initial bolus 25 mg/kg then daily diet 0.01% (S)-methoprene, week 5",24%
same,Percent Inhibition of Flea Egg Hatching,"[1]; pooled blood of dogs given initial bolus 25 mg/kg then daily diet 0.01% (S)-methoprene, week 6",19%
same,Percent Inhibition of Flea Egg Hatching,"[1]; pooled blood of dogs given initial bolus 50 mg/kg then daily diet 0.02% (S)-methoprene, week 1",33%
same,Percent Inhibition of Flea Egg Hatching,"[1]; pooled blood of dogs given initial bolus 50 mg/kg then daily diet 0.02% (S)-methoprene, week 3",48%
same,Percent Inhibition of Flea Egg Hatching,"[1]; pooled blood of dogs given initial bolus 50 mg/kg then daily diet 0.02% (S)-methoprene, week 5",38%
same,Percent Inhibition of Flea Egg Hatching,"[1]; pooled blood of dogs given initial bolus 50 mg/kg then daily diet 0.02% (S)-methoprene, week 6",22%
same,inhibition at 0.05 ppm,[2]; [4],56.4%
same,inhibition at 0.075 ppm,"[2]; average of a and b, read-out: Percent Inhibition of Flea Egg Hatching, averages",72%
same,inhibition at 0.1 ppm,[2]; [4],96.6%
same,inhibition at 0.25 ppm,[2]; [4],99.5%
same,inhibition at 0.5 ppm,[2]; [4],99.8%
same,inhibition at 0.05 ppm,[2]; [5],47.3%
same,inhibition at 0.5 ppm,[2]; [5],99.1%
same,inhibition at 0.1 ppm,[2]; [6],97.4%
same,inhibition at 0.25 ppm,[2]; [6],100%
same,inhibition at 0.1 ppm,[2]; [7],95.7%
same,inhibition at 0.25 ppm,[2]; [7],99%
same,inhibition at 0.5 ppm,"[2]; 168 h, day 7, read-out: Percent Inhibition of Flea Egg Hatching",100%
same,inhibition at 0.075 ppm,"[2]; 192 h, day 8, entry a, read-out: Percent Inhibition of Flea Egg Hatching",66%
same,inhibition at 0.075 ppm,"[2]; 192 h, day 8, entry b, read-out: Percent Inhibition of Flea Egg Hatching",78%
same,inhibition at 0.05 ppm,[2]; [8],65.4%
same,inhibition at 0.5 ppm,[2]; [8],100%
same,inhibition at 0.5 ppm,"[2]; 312 h, day 13, read-out: Percent Inhibition of Flea Egg Hatching",100%
same,(S)-Methoprene Concentration in Blood,"[3]; Group A 10 mg/kg I.V., 0.5 hours",0.703 ± 0.307 ppm
same,(S)-Methoprene Concentration in Blood,"[3]; Group A 10 mg/kg I.V., 1 hour",0.345 ± 0.107 ppm
same,(S)-Methoprene Concentration in Blood,"[3]; Group A 10 mg/kg I.V., 2 hours",0.113 ± 0.028 ppm
same,(S)-Methoprene Concentration in Blood,"[3]; Group A 10 mg/kg I.V., 3 hours",0.079 ± 0.002 ppm
same,(S)-Methoprene Concentration in Blood,"[3]; Group A 10 mg/kg I.V., 4 hours",0.066 ± 0.028 ppm
same,(S)-Methoprene Concentration in Blood,"[3]; Group A 10 mg/kg I.V., 5 hours",0.048 ± 0.001 ppm
same,(S)-Methoprene Concentration in Blood,"[3]; Group A 10 mg/kg I.V., 6 hours",0.046 ± 0.027 ppm
same,(S)-Methoprene Concentration in Blood,"[3]; Group A 10 mg/kg I.V., 7 hours",0.019 ± 0.008 ppm
same,(S)-Methoprene Concentration in Blood,"[3]; Group B 10 mg/kg oral, 1 hour",0.112 ± 0.038 ppm
same,(S)-Methoprene Concentration in Blood,"[3]; Group B 10 mg/kg oral, 2 hours",0.264 ± 0.122 ppm
same,(S)-Methoprene Concentration in Blood,"[3]; Group B 10 mg/kg oral, 3 hours",0.202 ± 0.065 ppm
same,(S)-Methoprene Concentration in Blood,"[3]; Group B 10 mg/kg oral, 4 hours",0.130 ± 0.066 ppm
same,(S)-Methoprene Concentration in Blood,"[3]; Group B 10 mg/kg oral, 5 hours",0.052 ± 0.026 ppm
same,(S)-Methoprene Concentration in Blood,"[3]; Group B 10 mg/kg oral, 6 hours",0.045 ± 0.014 ppm
same,(S)-Methoprene Concentration in Blood,"[3]; Group B 10 mg/kg oral, 7 hours",0.020 ± 0.005 ppm
same,(S)-Methoprene Concentration in Blood,"[3]; Group B 10 mg/kg oral, 8 hours",0.021 ± 0.009 ppm
same,(S)-Methoprene Concentration in Blood,"[3]; Group C 100 mg/kg oral, 1 hour",0.165 ± 0.070 ppm
same,(S)-Methoprene Concentration in Blood,"[3]; Group C 100 mg/kg oral, 2 hours",3.487 ± 1.324 ppm
same,(S)-Methoprene Concentration in Blood,"[3]; Group C 100 mg/kg oral, 3 hours",1.302 ± 0.409 ppm
same,(S)-Methoprene Concentration in Blood,"[3]; Group C 100 mg/kg oral, 4 hours",1.504 ± 0.533 ppm
same,(S)-Methoprene Concentration in Blood,"[3]; Group C 100 mg/kg oral, 5 hours",0.930 ± 0.449 ppm
same,(S)-Methoprene Concentration in Blood,"[3]; Group C 100 mg/kg oral, 6 hours",0.527 ± 0.341 ppm
same,(S)-Methoprene Concentration in Blood,"[3]; Group C 100 mg/kg oral, 7 hours",0.608 ± 0.292 ppm
same,(S)-Methoprene Concentration in Blood,"[3]; Group C 100 mg/kg oral, 8 hours",0.483 ± 0.221 ppm
